Assay results from patent publication US7332522B2, “Liver function protecting or ameliorating agent” (Kyowa Hakko Kogyo Co., Ltd., priority 2001, dated 2008).
Like-named read-outs stand apart in the source and are kept apart here.

What was measured:
[1] = test system: rat skin passive anaphylaxis; conditions: oral administration, cited from earlier work
mast cells = conditions: at 100 μM; induced by compound 48/80 or calcium ionophore A23187; cited from earlier work
leukocyte = conditions: in vitro; cited from earlier work
[2] = test system: rat gastric ulcer induced by ethanol hydrochloride; conditions: 75 mg/kg, oral administration; cited from earlier work
[3] = iron rhodanate method; cited from earlier work
Staphylococcus aureus = conditions: at 1000 ppm; cited from earlier work
[4] = test system: Staphylococcus epidemidis; conditions: at 1000 ppm; cited from earlier work
[5] = test system: Galactosamine-induced Rat Hepatopathy; experiment: Suppression of galactosamine-induced rat hepatopathy, GPT level in serum; type: in vivo, Male Wistar white rats; conditions: 15 days, serum 22 h after galactosamine 350 mg/kg i.p., relative to Comparative Example 1 feed = 100%, average ± standard error
Procedure: Male Wistar white rats (150±20 g, purchased from Japan SLC) were kept for at least 3 days under a fixed condition (temperature: 24±2° C., humidity: 60±5%, light and dark interval: 12 hours) for adaptation, and then fed respectively with the feeds produced in Examples 4-8 and the feed produced in Comparative Example 1 for 15 days. On the 14th day, 350 mg/kg of galactosamine (dissolved in physiological saline at a concentration of 35 mg/ml, and adjusted to pH 7.1) was intraperitoneally administered to each rat. Twenty-two hours after the administration of galactosamine, each of the rats was subjected to laparotomy under anesthesia with Nembutal and blood was collected.
Using thus obtained blood samples, blood GPT activity was measured as an indication of a liver function in the following manner. The collected blood was coagulated and separated by centrifugation to obtain a serum. The GPT level in the serum was measured using Fuji Drychem System 3500 (manufactured by Fuji Photo Film Co., Ltd.) with thus obtained serum. The GPT activity of each test group was calculated as the relative value (%) from the value obtained for each Example based on the value obtained for the feed in Comparative Example 1 expressed as 100%. The value is expressed in terms of average value±standard error and the statistical test of significance was carried out by Student's T-test.

[6] = 200 mg/kg; cited from earlier work
rat liver microsome = conditions: cited from earlier work
hyaluronidase = conditions: cited from earlier work

SMILES: COc1ccc(C2Cc3cccc(OC4OC(CO)C(O)C(O)C4O)c3C(=O)O2)cc1O (stereo not shown) [phyllodulcin 8-O-glucoside]
- suppression of rat skin passive anaphylaxis ([1]; 300 and 500 mg/kg): suppress
- suppression of release of histamine from mast cells (mast cells): not suppressed

SMILES: COc1ccc([C@H]2Cc3cccc(O)c3C(=O)O2)cc1O [phyllodulcin]
- suppression of rat skin passive anaphylaxis ([1]; 300 and 500 mg/kg): does not suppress
- concentration active in differentiation-inducing activity on leukocyte (leukocyte): 300 µM
- suppression of rat gastric ulcer induced by ethanol hydrochloride [2]: do not suppress
- suppression of release of histamine from mast cells (mast cells): not suppressed
- suppressive activity on linoleic acid oxidation [3]: more potent suppressive activity than α-tocopherol or BHA
- proliferation suppressive activity (Staphylococcus aureus): proliferation suppressive activity
- proliferation suppressive activity [4]: proliferation suppressive activity
- GPT activity (%) ([5]; feed of Example 4, phyllodulcin 0.366% in feed): 11.8 ± 18.0%
- GPT activity (%) ([5]; feed of Example 5, phyllodulcin 0.122% in feed): 54.7 ± 32.2%
- GPT activity (%) ([5]; feed of Example 6, phyllodulcin 0.037% in feed): 52.7 ± 59.9%
- cholagogic activity [6]: do not exhibit this activity
- suppressive activity on NADPH dependent lipid peroxidation (rat liver microsome): suppressive activity at a similar level to α-tocopherol

SMILES: O=C1O[C@H]([C@@H](O)c2ccc(O)cc2)c2cccc(O)c21 [hydramacrophyllol A, reference compound]
- suppression of release of histamine from mast cells (mast cells): not suppressed

SMILES: O=C1O/C(=C\c2ccc(O)c(O)c2)c2cccc(O)c21 [thunberginol F, reference compound]
- suppression of rat skin passive anaphylaxis ([1]; 300 and 500 mg/kg): suppress

SMILES: O=C1O[C@@H]([C@@H](O)c2ccc(O)cc2)c2cccc(O)c21 [hydramacrophyllol B, reference compound]
- suppression of release of histamine from mast cells (mast cells): not suppressed

SMILES: O=c1oc(-c2ccc(O)c(O)c2)cc2cccc(O)c12 [thunberginol A]
- suppression of rat skin passive anaphylaxis ([1]; 300 and 500 mg/kg): suppress
- concentration active in differentiation-inducing activity on leukocyte (leukocyte): 100 µM

SMILES: O=C1OC(c2ccc(O)cc2)Cc2cccc(O)c21 (stereo not shown) [hydrangenol]
- suppression of rat skin passive anaphylaxis ([1]; 500 mg/kg): suppress
- hyaluronidase inhibitory activity (hyaluronidase): hyaluronidase inhibitory activity
- concentration active in differentiation-inducing activity on leukocyte (leukocyte): 300 µM
- suppression of rat gastric ulcer induced by ethanol hydrochloride [2]: do not suppress
- suppression of release of histamine from mast cells (mast cells): not suppressed
- suppressive activity on linoleic acid oxidation [3]: weak suppressive activity
- GPT activity (%) ([5]; feed of Example 7, hydrangenol 0.324% in feed): 64.6 ± 116.5%
- GPT activity (%) ([5]; feed of Example 8, hydrangenol 0.108% in feed): 27.8 ± 45.4%
- cholagogic activity [6]: do not exhibit this activity
- suppressive activity on NADPH dependent lipid peroxidation (rat liver microsome): weak suppressive activity

SMILES: O=C1OC(c2ccc(O)cc2)Cc2cccc(OC3OC(CO)C(O)C(O)C3O)c21 (stereo not shown) [hydrangenol 8-O-glucoside]
- suppression of rat skin passive anaphylaxis ([1]; 300 and 500 mg/kg): suppress
- suppression of release of histamine from mast cells (mast cells): not suppressed
